Results taken from article PMC5618792, “Dynamic multicolor protein labeling in living cells” (Chemical Science, 2017).

How the values were obtained:
FAST [1] = target: T1, FAST (Halorhodospira halophila, UniProt P16113, C69G/D97P/F96I/M100R/Q99S/T101G/T95M/Y94W/Y98T); experiment: Spectroscopic properties of FAST:fluorogen complexes in PBS pH 7.4 (absorption, emission, quantum yield); assay type: physicochemical; conditions: for Brightness = ε × φ / ε, molar absorption coefficient at λ abs / φ, fluorescence quantum yield / λ abs, wavelength of maximal absorption / λ em, wavelength of maximal emission / F bound/F unbound, fluorescence activation upon FAST binding / Δλ abs = λ abs,bound – λ abs,unbound, absorption red-shift upon FAST binding: PBS pH 7.4
T1 construct: His-tag; made in house; host or cells: Rosetta(DE3)pLysS E. coli
Method: (§1) The UV/Vis absorption spectra were recorded with 1 cm × 1 cm quartz cuvettes (Hellma) on a diode array UV/Vis spectrophotometer (Evolution array, Thermo Scientific). The corrected fluorescence spectra upon one-photon excitation were recorded with a Photon Technology International QuantaMaster QM-1 spectrofluorimeter (PTI, Monmouth Junction, NJ) equipped with a Peltier cell holder (TLC50, Quantum Northwest, Shoreline, WA). The overall emission quantum yields after one-photon excitation φ were determined as previously described.[14]

[2] = Physico-chemical properties of free fluorogens in aqueous solutions; assay type: physicochemical; conditions: free fluorogen; for pKa: aqueous solution, read-out: pKA, acidity constant
Method: as §1, with “pH measurements were performed on a standard pH meter PHM210 Radiometer Analytical (calibrated with aqueous buffers at pH 4 and 7 or 10) with a Crison 5208 Electrode (Barcelona, Spain). The UV/Vis” for “The UV/Vis”
HBR-3,5DOM in aqueous solutions. Abbreviations are as follows : pKA, acidity constant ;
λabs,neutral, wavelength of maximal absorption of the protonated state; λabs,anionic, wavelength of
maximal absorption of the anionic state.
Fluorogen pKA λabs,neutral (nm) λabs,anionic (nm)

FAST [3] = target: T1, FAST; experiment: Affinity constants by spectrofluorometric titration of FAST with fluorogen; assay type: binding
Method: as §1

HeLa cells = experiment: LIVE/DEAD viability/cytotoxicity assay; assay type: cell-based; conditions: 5 µM, 24 h, calceinAM and EthD1
Method: The HeLa cells were treated with DMEM media containing the fluorogens at the indicated concentrations for the indicated times. The cell viability was evaluated by fluorescence microscopy using the LIVE/DEAD® viability/cytotoxicity assay kit (Molecular Probes, Life Technologies) following the manufacturer’s protocol.
Figure S2. Viability assay of HeLa cells incubated for 24 h with solutions of HBR-3,5DM, HBR-3OM and HBR-3,5DOM at 5 µM. Cell viability was tested by using calceinAM and EthD1 (LIVE/DEAD® viability/cytotoxicity assay kit). CalceinAM is a cell-permeant profluorophore cleaved by intracellular esterases releasing the green fluorescent polyanionic calcein in live cells. EthD1 (Ethidium homodimer 1) is a non cell-permeant nucleic acid red fluorescent stain that enters only cells with damaged membranes and undergoes a fluorescence enhancement upon binding to nucleic acids, thereby producing a bright red fluorescence in dead cells. Control experiments with HeLa cells non-incubated with dye (A) or incubated for 30 min with 1% hydrogen peroxyde (B) are shown. Cell fluorescence was evaluated by confocal microscopy.
3OM and HBR-3,5DOM are non-toxic for HeLa cells at the concentrations used for imaging.
(1 picture or pasted object on this page, not shown here)

[4] = FAST:fluorogen complex, listed as FAST:HBR-2,5DM
[5] = FAST:fluorogen complex, listed as FAST:HBR-3,5DM
[6] = FAST:fluorogen complex, listed as FAST:HBR-3OE
[7] = FAST:fluorogen complex, listed as FAST:HBR-3OM

T1 sequence (P16113 whole entry C69G/Y94W/T95M/F96I/D97P/Y98T/Q99S/M100R/T101G): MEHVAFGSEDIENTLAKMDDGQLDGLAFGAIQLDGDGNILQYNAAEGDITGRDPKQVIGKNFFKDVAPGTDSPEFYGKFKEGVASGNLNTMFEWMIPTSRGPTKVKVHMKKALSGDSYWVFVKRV

Q: Which “red-shifted absorption relative to FAST:HMBR” value (FAST [1]; FAST:fluorogen complex) does the source give for `Cc1cc(/C=C2\SC(=S)NC2=O)c(C)cc1O` [HBR-2,5DM, (Z)-5-(4-Hydroxy-2,5-dimethylbenzylidene)-2-thioxo-1,3-thiazolidin-4-one] here?
A: The value was 15–20 nm.

Q: What about the “red-shifted emission relative to FAST:HMBR” value (FAST [1]; FAST:fluorogen complex) of the same compound?
A: Its value is 10–20 nm.

Q: What about the “Brightness = ε × φ” value (FAST [1]; FAST:fluorogen complex) of the same compound?
A: Its value is 14 500.

Q: And the “ε, molar absorption coefficient at λ abs” value (FAST [1]; FAST:fluorogen complex)?
A: Its value is 50 mM^–1 cm^–1.

Q: What about the “φ, fluorescence quantum yield” value (FAST [1]; FAST:fluorogen complex) of the same compound?
A: Its value is 29%.

Q: And the “λ abs, wavelength of maximal absorption” value (FAST [1]; [4])?
A: The value was 494 nm.

Q: And the “λ em, wavelength of maximal emission” value (FAST [1]; [4])?
A: Its value is 552 nm.

Q: What about the “F bound/F unbound, fluorescence activation upon FAST binding” value (shortened to “F bound/F unbound”) (FAST [1]) of the same compound?
A: Its value is 430.

Q: And the “Δλ abs = λ abs,bound – λ abs,unbound, absorption red-shift upon FAST binding” value (FAST [1])?
A: The value was 88 nm.

Q: And the pKa [2]?
A: The pKa was 8.7.

Q: What about the “λabs,anionic, wavelength of maximal absorption of the anionic state” value (“λabs,anionic, wavelength” for short) [2] of the same compound?
A: Its value is 472 nm.

Q: What about the “λabs,neutral, wavelength of maximal absorption of the protonated state” value (shortened to “λabs,neutral, wavelength”) [2] of the same compound?
A: Its value is 406 nm.

Q: And the Kd (FAST [3])?
A: Its Kd is 0.008 µM.

Q: Which results are given for `Cc1cc(/C=C2\SC(=S)NC2=O)cc(C)c1O` [HBR-3,5DM, (Z)-5-(4-Hydroxy-3,5-dimethylbenzylidene)-2-thioxothiazolidin-4-one]?
A: red-shifted absorption relative to FAST:HMBR (FAST [1]; FAST:fluorogen complex): 15–20 nm; red-shifted emission relative to FAST:HMBR (FAST [1]; FAST:fluorogen complex): 10–20 nm; Brightness = ε × φ (FAST [1]; FAST:fluorogen complex): 23 500; ε, molar absorption coefficient at λ abs (FAST [1]; FAST:fluorogen complex): 48 mM^–1 cm^–1; φ, fluorescence quantum yield (FAST [1]; FAST:fluorogen complex): 49%; λ abs, wavelength of maximal absorption (FAST [1]; [5]): 499 nm; λ em, wavelength of maximal emission (FAST [1]; [5]): 562 nm; F bound/F unbound, fluorescence activation upon FAST binding (FAST [1]): 660; Δλ abs = λ abs,bound – λ abs,unbound, absorption red-shift upon FAST binding (FAST [1]): 98 nm; overall brightness relative to the original FAST:HMBR complex (FAST [1]; higher than FAST:HMBR): 2.5 fold; pKa [2]: 8.7; λabs,anionic, wavelength of maximal absorption of the anionic state [2]: 473 nm; λabs,neutral, wavelength of maximal absorption of the protonated state [2]: 401 nm; toxicity for HeLa cells (cell viability) (HeLa cells): non-toxic; Kd (FAST [3]): 0.08 µM

Q: With `COc1cc(/C=C2\SC(=S)NC2=O)cc(OC)c1O` [HBR-3,5DOM, (Z)-5-(4-Hydroxy-3,5-dimethoxybenzylidene)-2-thioxothiazolidin-4-one] as the compound, how does the Stokes shift (FAST [1]; FAST:fluorogen complex) read?
A: The Stokes shift was 82 nm.

Q: What about the “red-shifted absorption relative to FAST:HMBR” value (FAST [1]; FAST:fluorogen complex) of the same compound?
A: Its value is 40 nm.

Q: And the “red-shifted emission relative to FAST:HMBR” value (FAST [1]; FAST:fluorogen complex)?
A: The value was 60 nm.

Q: What about the “Brightness = ε × φ” value (FAST [1]; FAST:fluorogen complex) of the same compound?
A: Its value is 12 000.

Q: And the “ε, molar absorption coefficient at λ abs” value (FAST [1]; FAST:fluorogen complex)?
A: The value was 39 mM^–1 cm^–1.

Q: And the “λ em, wavelength of maximal emission” value (FAST [1]; FAST:fluorogen complex)?
A: Its value is 600 nm.

Q: And the “φ, fluorescence quantum yield” value (FAST [1]; FAST:fluorogen complex)?
A: Its value is 31%.

Q: And the “F bound/F unbound” value (FAST [1])?
A: Its value is 220.

Q: What about the “Δλ abs = λ abs,bound – λ abs,unbound, absorption red-shift upon FAST binding” value (FAST [1]) of the same compound?
A: Its value is 112 nm.

Q: What about the pKa [2] of the same compound?
A: Its pKa is 8.3.

Q: What about the “λabs,anionic, wavelength” value [2] of the same compound?
A: Its value is 484 nm.

Q: What about the “λabs,neutral, wavelength” value [2] of the same compound?
A: The value was 407 nm.

Q: And the “toxicity for HeLa cells (cell viability)” value (HeLa cells)?
A: Its value is “non-toxic”.

Q: Which “Brightness = ε × φ” value (FAST [1]; FAST:fluorogen complex) does the source give for `CCc1cc(/C=C2\SC(=S)NC2=O)ccc1O` [HBR-3E, (Z)-5-(3-Ethyl-4-hydroxybenzylidene)-2-thioxothiazolidin-4-one] here?
A: Its value is 6500.

Q: What about the “ε, molar absorption coefficient at λ abs” value (FAST [1]; FAST:fluorogen complex) of the same compound?
A: Its value is 50 mM^–1 cm^–1.

Q: And the “λ abs, wavelength of maximal absorption” value (FAST [1]; FAST:fluorogen complex)?
A: The value was 481 nm.

Q: What about the “λ em, wavelength of maximal emission” value (FAST [1]; FAST:fluorogen complex) of the same compound?
A: The value was 543 nm.

Q: What about the “φ, fluorescence quantum yield” value (FAST [1]; FAST:fluorogen complex) of the same compound?
A: The value was 13%.

Q: And the “F bound/F unbound” value (FAST [1])?
A: Its value is 300.

Q: And the “Δλ abs = λ abs,bound – λ abs,unbound, absorption red-shift upon FAST binding” value (FAST [1])?
A: Its value is 81 nm.

Q: And the Kd (FAST [3])?
A: Its Kd is 0.08 µM.

Q: For `CCOc1cc(/C=C2\SC(=S)NC2=O)ccc1O` [HBR-3OE, (Z)-5-(3-Ethoxy-4-hydroxybenzylidene)-2-thioxothiazolidin-4-one], which “red-shifted absorption relative to FAST:HMBR” value (FAST [1]; FAST:fluorogen complex) is on record?
A: Its value is 15–20 nm.

Q: What about the “red-shifted emission relative to FAST:HMBR” value (FAST [1]; FAST:fluorogen complex) of the same compound?
A: Its value is 10–20 nm.

Q: What about the “Brightness = ε × φ” value (FAST [1]; FAST:fluorogen complex) of the same compound?
A: The value was 7000.

Q: What about the “ε, molar absorption coefficient at λ abs” value (FAST [1]; FAST:fluorogen complex) of the same compound?
A: The value was 41 mM^–1 cm^–1.

Q: And the “φ, fluorescence quantum yield” value (FAST [1]; FAST:fluorogen complex)?
A: The value was 17%.

Q: What about the “λ abs, wavelength of maximal absorption” value (FAST [1]; [6]) of the same compound?
A: The value was 497 nm.

Q: What about the “λ em, wavelength of maximal emission” value (FAST [1]; [6]) of the same compound?
A: Its value is 562 nm.

Q: What about the “F bound/F unbound” value (FAST [1]) of the same compound?
A: The value was 230.

Q: And the “Δλ abs = λ abs,bound – λ abs,unbound, absorption red-shift upon FAST binding” value (FAST [1])?
A: Its value is 94 nm.

Q: And the Kd (FAST [3])?
A: The Kd was 0.27 µM.

Q: Which “red-shifted absorption relative to FAST:HMBR” value (FAST [1]; FAST:fluorogen complex) does the source give for `COc1cc(/C=C2\SC(=S)NC2=O)ccc1O` [HBR-3OM, (Z)-5-(4-Hydroxy-3-methoxybenzylidene)-2-thioxo-1,3-thiazolidin-4-one] here?
A: The value was 15–20 nm.

Q: What about the “red-shifted emission relative to FAST:HMBR” value (FAST [1]; FAST:fluorogen complex) of the same compound?
A: The value was 10–20 nm.

Q: And the “Brightness = ε × φ” value (FAST [1]; FAST:fluorogen complex)?
A: Its value is 14 400.

Q: And the “ε, molar absorption coefficient at λ abs” value (FAST [1]; FAST:fluorogen complex)?
A: Its value is 40 mM^–1 cm^–1.

Q: What about the “φ, fluorescence quantum yield” value (FAST [1]; FAST:fluorogen complex) of the same compound?
A: Its value is 36%.

Q: And the “λ abs, wavelength of maximal absorption” value (FAST [1]; [7])?
A: Its value is 494 nm.

Q: What about the “λ em, wavelength of maximal emission” value (FAST [1]; [7]) of the same compound?
A: The value was 561 nm.

Q: And the “F bound/F unbound” value (FAST [1])?
A: Its value is 350.

Q: And the “Δλ abs = λ abs,bound – λ abs,unbound, absorption red-shift upon FAST binding” value (FAST [1])?
A: Its value is 91 nm.

Q: What about the pKa [2] of the same compound?
A: The pKa was 8.3.

Q: And the “λabs,anionic, wavelength” value [2]?
A: Its value is 468 nm.

Q: And the “λabs,neutral, wavelength” value [2]?
A: The value was 403 nm.

Q: What about the “toxicity for HeLa cells (cell viability)” value (HeLa cells) of the same compound?
A: The value was “non-toxic”.

Q: What about the Kd (FAST [3]) of the same compound?
A: The Kd was 0.31 µM.

Q: Which results are given for `Cc1cc(C=C2SC(=S)NC2=O)ccc1O` [HMBR, 4-hydroxy-3-methylbenzylidene rhodanine, reference compound]?
A: Brightness = ε × φ (FAST [1]; FAST:fluorogen complex): 10 300; ε, molar absorption coefficient at λ abs (FAST [1]; FAST:fluorogen complex): 45 mM^–1 cm^–1; F bound/F unbound, fluorescence activation upon FAST binding (FAST [1]): 300; pKa [2]: 8.7; λabs,anionic, wavelength of maximal absorption of the anionic state [2]: 461 nm; λabs,neutral, wavelength of maximal absorption of the protonated state [2]: 401 nm
